Data taken from patent US12201626B2, “Bifunctional compositions for the treatment of cancer” (ARMACEUTICA, INC., priority 2018, dated 2025).
Read-outs that look alike come from different tables or passages of the source.

How the values were obtained:
[1] = Differential Nuclear Staining (DNS) cytotoxicity assay, panel; type: cell-based; settings: human, read-out: selective cytotoxicity index (SCI)
From the text: (§1) In this study, 19 human cell lines were utilized: seven breast human cancer; MDA-MB-468, MCF-7, T47D, HCC1419, HCC70, MDA-MB-231 (triple negative) and its lung metastatic (LM) derivative MDA-MB-231 LM2; four human leukemia/lymphoma cells, HL-60, Ramos, Jurkat and CEM, three human ovarian cancer, Ovcar 8, Ovcar 5 and Ovcar 3, one lung cancer, one melanoma and one pancreatic cell line, A549, A375, Panc-1 respectively. Furthermore, for selectivity/comparative purposes, the cell lines from the non-cancerous origin, MCF-10A, HS-27 were also included. The culture media used for MDA-MB-231, MDA-MB-231 LM2, MDA-MB-468, MCF-7, A549, A375, Panc-1, and HS-27 was DMEM (Hyclone, Logan UT), whereas for T47D, HCC-1419, HCC-70, HL-60, Ramos, Jurkat, CEM, Ovcar 8 and Ovcar 5 was RPMI-1640 (Hyclone, Logan UT). Consistently, both DMEM and RPMI culture media was supplemented with 10% heat-inactivated fetal bovine serum (FBS: Hyclone), 100 U/ml penicillin and 100 μg/ml streptomycin (Thermo Fisher Scientific Inc., Rockford, IL). […] The adherent cells, growing in the logarithmic growth phase at a 60-75% confluence, were detached by utilizing a HyQtase enzyme (Thermo Fisher Scientific Inc.), counted and seeded in 96-well plates at 10,000 cells density in 100 μL of culture medium per well. […]
(§2) To analyze the potential cytotoxic activity of PND, the Differential Nuclear Staining (DNS) assay, which was validated for high-throughput screening (HTS) using live-cell bio-imaging was utilized. […] Montages of 2 by 2 images were captured directly from each individual well of the culture plates by using a multi-well plate reader IN Cell 2000 analyzer, an HTS and high-content analysis (HCA) system (GE Healthcare Life Sciences, Pittsburgh, PA). […] Each experimental data point, as well as controls, were assessed in triplicates. […]
(§3) The selective cytotoxicity index (SCI) denotes the capability of a given experimental compound to kill cancer cells more efficiently while inflicting minimal toxicity to non-cancerous origin cells. Thus, the SCI for PND was calculated as follow: SCI=CC50 of non-cancerous cells/CC50 of cancer cells.

[2] = system: panel of human cancer cell lines; assay: as above; type: cell-based; settings: Homo sapiens; 72 h, DNS assay; read-out: CC50 over all cancer cell lines tested
From the text: as §1, §2, §3

[3] = system: Calf Thymus DNA; assay: UV-Visible spectrophotometric titration; type: binding; settings: PND 22.8 μM, Tris/HCl buffer, CT DNA additions
Experimental: UV-Visible measurements were taken in a Varian Cary 100 spectrophotometer. Calf Thymus (CT) DNA and buffers were purchased from Sigma Aldrich. The binding constant of PND with CT DNA was determined by absorption titration at room temperature through stepwise addition of a CT DNA solution (10.1 mM; 5 μL additions) in buffer (5 mM Tris/HCl, 50 mM NaCl, pH=7.39) over a 2 mL working solution of PND (22.8 μM) in the same buffer. Absorption spectra were recorded at 424 nm and the titration was terminated when saturation was reached. In order to determine the binding affinity, the data was fitted to the Scatchard equation r/Cf=K(n−r) (McGhee and von Hippel plots), where r is the number of moles of PND bound to 1 mol of CT DNA, n is the number of equivalent binding sites, and K is the affinity of the complex for those binding sites. Concentrations of free (Cf) and bound (Cb) complexes were calculated from Cf=C(1−α) and Cb=C−Cf, respectively, where C is the total PND concentration. The fraction of the bound complex (α) was calculated from α=(Af−A)/(Af−Ab), where Af and Ab are the absorbances of the free and fully bound drug at the selected wavelengths, and A is the absorbance at any given point during the titration. The plot of r/Cf vs. r gives the binding constant Kb as the slope of the graph. All experiments were performed in triplicate and values of Kb were averaged.

Question: For COC1=CC=C2Nc3cc(Cl)ccc3C(N=C3C=C(CN4CCCC4)C(=O)C(CN4CCCC4)=C3)=C2N1 [PND, 4-[(7-chloro-2-methoxy-1,5-dihydrobenzo[b][1,5]naphthyridin-10-yl)imino]-2,6-bis(pyrrolidin-1-ylmethyl)cyclohexa-2,5-dien-1-one], which selectivity ratio at 72 h ([1]; leukemia/lymphoma cells) is on record?
Answer: The selectivity ratio at 72 h was 1.43 to 3.47.

Question: And the selectivity ratio at 72 h ([1]; several breast cancer cells vs non-cancerous cells)?
Answer: The selectivity ratio at 72 h was greater than 2.5.

Question: And the CC50 [2]?
Answer: The CC50 was 1.6 to 9.4 µM.

Question: And the “hypochromic effect at 424 nm” value [3]?
Answer: Its value is 39%.

Question: What about the “red-shift of absorbance maximum at 424 nm” value [3] of the same compound?
Answer: Its value is 8 nm.
